Data as given in BigSolDB 2.1.

Cn1c(=O)c2c(ncn2CCO)n(C)c1=O
Settings | solubility (mole fraction)
in ethanol, 313.9 K | 0.001
in ethanol, 321.2 K | 0.0016
in ethanol, 325.7 K | 0.0023
in ethanol, 327.4 K | 0.0029
in ethanol, 332.5 K | 0.004
in ethanol, 336.8 K | 0.0055
in ethanol, 339.1 K | 0.0065
in ethanol, 339.7 K | 0.0068
in ethanol, 342.4 K | 0.0077
in ethanol, 343.8 K | 0.0081
in ethanol, 344.9 K | 0.0086
in n-octanol, 323.2 K | 0.0026
in n-octanol, 333.2 K | 0.0046
in n-octanol, 335.2 K | 0.006
in n-octanol, 338.4 K | 0.0074
in n-octanol, 343.5 K | 0.0095
in n-octanol, 351.8 K | 0.0149
in n-octanol, 355.5 K | 0.02
in n-octanol, 365.2 K | 0.0259
in water, 290.7 K | 0.0027
in water, 300.9 K | 0.0039
in water, 301.6 K | 0.0041
in water, 303.4 K | 0.0042
in water, 304.6 K | 0.0048
in water, 306 K | 0.0052
in water, 312.5 K | 0.0067
in water, 312.8 K | 0.0067
in water, 316.2 K | 0.0086
in water, 317.9 K | 0.0099
in water, 320.5 K | 0.0119
in water, 322.5 K | 0.0133
in water, 324.9 K | 0.0155
in water, 330.8 K | 0.0204
in water, 334.7 K | 0.026
in water, 342 K | 0.0447
in water, 347.3 K | 0.0623
in water, 348.4 K | 0.0808

Cn1c(=O)c2[nH]cnc2n(C)c1=O
Settings | solubility (mole fraction)
in ethanol, 309.4 K | 0.0008
in ethanol, 313 K | 0.0013
in ethanol, 318.6 K | 0.002
in ethanol, 321.3 K | 0.0027
in ethanol, 325.2 K | 0.0036
in ethanol, 332.8 K | 0.005
in ethanol, 340.1 K | 0.0083
in ethanol, 345.3 K | 0.0123
in n-octanol, 322.3 K | 0.001
in n-octanol, 327.2 K | 0.0013
in n-octanol, 330.2 K | 0.0017
in n-octanol, 336.7 K | 0.0025
in n-octanol, 337.5 K | 0.0027
in n-octanol, 343.8 K | 0.0045
in n-octanol, 352.1 K | 0.0063
in n-octanol, 355.3 K | 0.0069
in n-octanol, 364.5 K | 0.008
in water, 308.5 K | 0.0004
in water, 310.6 K | 0.0005
in water, 314.5 K | 0.0007
in water, 316.7 K | 0.0009
in water, 319.3 K | 0.001
in water, 323.4 K | 0.0012
in water, 326.2 K | 0.0018
in water, 333.3 K | 0.0026
in water, 337.6 K | 0.0039
in water, 342.6 K | 0.0064
in water, 343.1 K | 0.007

Cn1cnc2c1c(=O)[nH]c(=O)n2C
solubility (mole fraction)
Settings | 293.15 K | 298.15 K | 303.15 K | 308.15 K | 313.15 K | 318.15 K
in ethanol | 1.53e-05 | 2.33e-05 | 3.15e-05 | 3.85e-05 | 5.49e-05 | 6.34e-05
in n-octanol | 0.000214 | 0.000433 | – | 0.00061 | – | 0.000824
in water | 0.001 | 0.00101 | 0.00101 | 0.00103 | 0.00104 | 0.00104
